Results published in PMC11173721, “Discovery of a New Class of Lipophilic Pyrimidine-Biphenyl Herbicides Using an Integrated Experimental-Computational Approach” (Molecules, 2024).

Target: T1, acetohydroxyacid synthase (AHAS) (Arabidopsis thaliana, UniProt P17597)
T1 construct: gene ALS; wild-type
T1 sequence (P17597 56-670): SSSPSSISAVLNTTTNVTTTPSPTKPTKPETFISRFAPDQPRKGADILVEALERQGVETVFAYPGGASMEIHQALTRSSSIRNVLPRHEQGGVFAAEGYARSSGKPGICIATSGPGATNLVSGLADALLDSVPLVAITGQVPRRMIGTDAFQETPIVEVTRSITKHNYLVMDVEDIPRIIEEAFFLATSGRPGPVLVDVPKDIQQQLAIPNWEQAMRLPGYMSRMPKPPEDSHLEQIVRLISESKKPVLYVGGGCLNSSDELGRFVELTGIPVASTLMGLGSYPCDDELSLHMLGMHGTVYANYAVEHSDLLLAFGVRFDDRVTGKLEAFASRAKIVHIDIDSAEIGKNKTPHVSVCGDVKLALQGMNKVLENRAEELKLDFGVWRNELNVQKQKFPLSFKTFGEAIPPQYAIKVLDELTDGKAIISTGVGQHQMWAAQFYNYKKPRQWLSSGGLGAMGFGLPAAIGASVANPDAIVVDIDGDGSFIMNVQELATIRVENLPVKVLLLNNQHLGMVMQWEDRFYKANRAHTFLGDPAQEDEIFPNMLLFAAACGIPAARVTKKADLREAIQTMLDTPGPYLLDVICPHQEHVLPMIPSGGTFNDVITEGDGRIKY
Assay: purified AtAHAS colorimetric activity assay ([…] nm)
Type: biochemical

SMILES | IC50 [µM]
COc1cc(OC)nc(Oc2ccccc2CNc2ccc(-c3ccccc3)cc2)n1 [IIIa] | 343
COc1cc(OC)nc(Oc2ccccc2CNc2cccc(-c3ccccc3)c2)n1 [IIa] | 189
COc1cc(OC)nc(Oc2ccccc2CNc2ccccc2-c2ccccc2)n1 [Ia] | 157
COc1cc(OC)nc(Oc2ccccc2CNc2ccccc2)n1 [PBA] | 593
